Reference: US5942534A, “Photodynamic therapy for the treatment of osteoarthritis” (The General Hospital Corporation, priority 1997, dated 1999)
Converted amounts (≈) assume the structure as drawn. Where two headings read alike, the source gives them in different places.

Assays:
Type in all cases: cell-based, calf
[1] = tested on: chondrocytes; assay: Cell proliferation ([^3 H]-thymidine incorporation) after PDT; settings: for effect on cellular proliferation rates (in words): [^3 H]-thymidine incorporation (FIG. 2); for IC50: Bos taurus, Chondrocyte
Description: (§1) Chondrocytes were harvested by established collagenase digestion techniques. Articular cartilage was aseptically dissected from the femoral condyles and patellas of calf knee joints. […] The resulting cell suspensions were filtered through a cell sieve and washed twice with serum free TCM. The cells were resuspended in the same medium containing 5% heat inactivated fetal calf serum (BioWhittaker, Walkerville, Md.) (FCS-TCM) for seeding. Cell number was determined using a hemocytometer. […] Cells were plated at a density of 1.5×10^6 cells/ml into Falcon 96 well cell culture plates (Becton Dickinson Labware, Franklin Lakes, N.J.) for the cytotoxicity and cell proliferation experiments and into Falcon 6 well cell culture plates for the Photosensitizer uptake studies. Chondrocyte cultures were maintained at 37° C. in a 5% CO2 incubator for 1 week prior to initiation of the photosensitization studies.
(§2) Photofrin® (PF) and Benzoporphyrin Derivative (BPD-MA) were obtained from Quadralogic Technologies (Vancouver, Canada). Chlorin e6 (Ce6) and chloroaluminum phthalocyanine (CASP) were obtained from Ciba Geigy (Basel, Switzerland) and Porphyrin Products (Logan, Utah), respectively. All photosensitizers were added to the chondrocytes in the dark 3 hours prior to light exposure. Photosensitizer stock solutions were prepared immediately prior to each experiment; serial dilutions were prepared using FCS-TCM. All irradiations were done at the appropriate excitation wavelengths for each photosensitizer (BPD-MA 690 nm; Ce6 658 nm; CASP 680 nm; PF 624 nm) using light provided by an argon ion pumped dye laser (Coherent, Palo Alto, Calif.). Following light exposure, control and irradiated cells were maintained for 72 hours prior to the assessment of cellular viability and proliferation rates. Cells were examined daily by light microscopy for morphologic changes.
Cell proliferation was determined by [^3 H]-thymidine incorporation for all chondrocyte cultures 72 hours after drug and/or light exposure. The cell cultures were labeled with 5 μCi/ml [^3 H]-thymidine (35 Ci/mmol) (ICN, Irvine, Calif.) in FCS-TCM. After incubation for 20 hours, the radioactive medium was removed and the cells were rinsed three times with phosphate buffered saline (PBS) to remove unincorporated label. The cells were then lysed with buffer containing 150 mM Tris pH 8.0, 200 mM sodium chloride, 10% triton X-100 and 1% SDS. [^3 H]-thymidine incorporation was determined by liquid scintillation methods and the data are expressed as mean % control ±S.E.M. of samples irradiated without photosensitizer addition.
(§3) Articular chondrocytes were maintained in primary culture for five days after plating. Photosensitizer stocks were serially diluted in FCS-TCM and added to triplicate wells. The cells were incubated in the dark for 3 hours. The photosensitizer-containing FCS-TCM was then removed and the cells were rinsed with 1 ml PBS. To digest the extracellular matrix, the cells were then immersed in 1 ml of a solution of 1 mg/ml collagenase and 0.1 mg/ml hyaluronidase in serum-free TCM. The resulting single cell suspensions were transferred to microfuge tubes and were centrifuged at 3.3×g for 5 minutes. The collagenase solution was removed and the cells were rinsed three times with calcium/magnesium-free PBS. Aliquots were taken for cell counting prior to cell lysis with 1 ml 0.1 N NaOH containing 1% SDS. Cell counting was performed by hemocytometer and Coulter counter. Fluorescent spectra of the cell lysates were obtained using a Spex FluoroMax spectrofluorometer (ISA Instruments, Edison, N.J.) at the appropriate excitation/emission wavelengths for each of the four photosensitizers studied. Fluorescence spectra were corrected for background fluorescence. Relative uptake values were obtained by regression analysis of standard curves of known photosensitizer concentrations. […] Values of uptake at the IC50 are shown in fg/cell.

[2] = tested on: chondrocytes; assay: Fluorescence of photosensitizers in chondrocytes (confocal microscopy)
[3] = tested on: MMP2; assay: Gelatin zymography, MMP2 after PDT; settings: for reduction of MMP2 production: at the IC50 dose
Description: as §1, §2
Aliquots of conditioned medium were mixed with 1 ml of acetone and maintained at -20° C. for 16-20 hours. The aliquots were microcentrifuged at 14,000×g for 15 minutes, the supernatant was removed and the precipitated protein was dried in a vacuum concentrator (Savant, Farmingdale, N.Y.) to remove residual acetone. Conditioned medium samples were mixed with sample buffer (0.4 M Tris pH 6.8, 5% SDS, 20% glycerol, 0.003% bromophenol blue) and applied directly, without boiling or reduction, to 10% acrylamide gels containing 1% gelatin. […] The gels were stained for 1 hour at room temperature in 30% methanol/10% acetic acid containing 0.5% coomassie blue R-250 and destained in the same solution without dye. The gelatinolytic activity of the proteins was evidenced by clear bands against the blue background of the stained gelatin.

[4] = tested on: chondrocytes; assay: PDT-induced cytotoxicity (MTT cellular viability) in chondrocytes; settings: for toxic response / cellular viability (in words): 1, 5 or 10 J/cm^2 light; for decrease in cellular viability: BPD-MA concentrations exceeding 0.1 μg/ml, 690 nm
Description: as §1, §2
Screening studies of toxicity determined the range of doses and light response for each photosensitizer. These predetermined ranges were used for all of the studies described. […] Dosages greater than 50 μg/ml were considered not clinically relevant and a dose range extending to 50 μg/ml was chosen for these studies.
PDT-induced cytotoxicity was determined 72 hours after irradiation. […] MTT is metabolized via mitochondrial dehydrogenase enzymes to a formazan dye which can be measured spectrophotometrically. Cytotoxicity is expressed as the percentage of formazan produced in cells treated with visible light of different wavelengths and intensities relative to control cells (% control). The data are expressed as the mean ±S.E.M. from triplicate experiments.

[5] = tested on: articular chondrocytes; assay: Photosensitizer uptake studies; settings: for IC50 Uptake: uptake at the IC50, 3 hours incubation in the dark; for relative uptake (in words): at the IC50 concentrations, 3 hour incubation
Description: as §1
as §3, with “fg/cell. Average protein per cell was calculated from the cell counts and protein concentration determined by the Lowry protein assay.” for “fg/cell.”

[6] = tested on: MMP9; assay: Gelatin zymography, MMP9 after PDT; settings: at PDT parameter levels non-toxic to chondrocytes
Description: Chondrocytes were harvested by established collagenase digestion techniques. Articular cartilage was aseptically dissected from the femoral condyles and patellas of calf knee joints. Condyle surface shavings were finely minced and digested overnight at 37° C. with collagenase 1 mg/ml (Type II; 355 U/mg dry weight (dw)) and hyaluronidase 0.1 mg/ml (1060 USP/NF units/mg dw) (Worthington Biochemicals, Inc., Freehold, N.J.) in Dulbecco's Modified Eagle's Medium (DMEM; Mediatech, Herndon, Va.) supplemented with 20 mM HEPES, 100 U/ml penicillin G, 100 μg/ml ascorbic acid (serum free TCM). The resulting cell suspensions were filtered through a cell sieve and washed twice with serum free TCM. The cells were resuspended in the same medium containing 5% heat inactivated fetal calf serum (BioWhittaker, Walkerville, Md.) (FCS-TCM) for seeding. Cell number was determined using a hemocytometer. Cell viability, which was determined by trypan blue exclusion, was greater than 99% for all preparations. Cells were plated at a density of 1.5×10^6 cells/ml into Falcon 96 well cell culture plates (Becton Dickinson Labware, Franklin Lakes, N.J.) for the cytotoxicity and cell proliferation experiments and into Falcon 6 well cell culture plates for the Photosensitizer uptake studies. […]

[7] = CASP parameters tested in zymography studies
[8] = concentration inhibiting [^3 H]-thymidine incorporation by 50%

## [Cl][Al]1[n]2c3c4ccccc4c2N=C2N=C(N=c4c5ccccc5c([n]41)=NC1=NC(=N3)c3ccccc31)c1ccccc12 [CASP, chloroaluminum phthalocyanine]
[1]; 50 μg/ml, highest concentration of CASP investigated
  reduction of [^3 H]-thymidine incorporation: 25%
[1]; [7]
  decrease by [^3 H]-thymidine incorporation (in words): no decrease in cellular viability was observed
[1]
  effect on cellular proliferation rates (in words): least toxic
[1]; [8]
  IC50 (Table 2): > 50 mg/L
[2]
  cellular fluorescence intensity (in words): Minimal CASP fluorescence was observed at the drug concentrations studied
[3]; 3.12 μg/ml, light dose of 10 J/cm^2, no decrease in cell viability
  reduction in MMP2 levels (in words): complete reduction in MMP2 levels
[3]; CASP parameters tested
  reductions in MMP2 levels (in words): significant reductions in MMP2 levels
[3]; drug concentrations greater than 0.2 μg/ml, light dose of 10 J/cm^2
  decrease of MMP2 levels: 25%
[4]
  toxic response / cellular viability (in words): minimally toxic to articular chondrocytes
[4]; [7]
  decrease in cellular viability by MTT production (in words): no decrease in cellular viability was observed
[4]; in the range studied (FIG. 1D)
  saturation of toxicity effects (in words): No saturation effects were observed
[4]; screening studies of toxicity to determine range of doses
  dose response in screening studies of toxicity (in words): no dose response was seen
[5]
  Photons Absorbed at IC50: 1.86 × 10^6 photons/cell
  IC50 Uptake: 64.77 fg/cell

## C=Cc1c(C)c2cc3nc(c(CC(=O)O)c4[nH]c(cc5nc(cc1[nH]2)C(C)=C5CC)c(C)c4C(=O)O)[C@@H](CCC(=O)O)[C@@H]3C [Ce6, Chlorin e6]
[6]
  MMP9 production (in words): reduced at PDT parameter levels non-toxic to chondrocytes
[1]; 72 hours after drug and/or light exposure, light dose not given, read-out: IC50, inhibition of chondrocyte proliferation ([^3 H]-thymidine incorporation)
  IC50: 4.4 mg/L (≈ 7.37 µM)
[1]; concentration inhibiting [^3 H]-thymidine incorporation by 50%, read-out: IC50 (Table 2)
  IC50: 4.4 mg/L (≈ 7.37 µM)
[2]
  cellular fluorescence intensity (in words): elevated levels of cytoplasmic fluorescence comparable in intensity and distribution to BPD-MA
[3]; at PDT parameter levels non-toxic to chondrocytes
  MMP2 production (in words): reduced at PDT parameter levels non-toxic to chondrocytes
[3]; at high drug doses
  MMP production (in words): correspondingly greater decreases in MMP production
[3]
  reduction of MMP2 production: > 95%
[3]; zymography studies
  total protein concentration (in words): did not vary with MMP values
[4]; more than 6 μg/ml Ce6, 5 or 10 J/cm^2 light, 658 nm, 72 hours after irradiation
  decrease in viability: approximately 50%
[5]
  Photons Absorbed at IC50: 1.44 × 10^8 photons/cell
  relative uptake (in words): markedly less than for CASP and PF
  IC50 Uptake: 2.32 fg/cell

## Benzoporphyrin Derivative [BPD-MA]
[1]; 72 hours after drug and/or light exposure, light dose not given
  IC50, inhibition of chondrocyte proliferation ([^3 H]-thymidine incorporation): 0.0503 mg/L
[1]
  effect on cellular proliferation rates (in words): most toxic effects
[1]; [8]
  IC50 (Table 2): 0.05 mg/L
[2]
  cellular fluorescence intensity (in words): strongest fluorescence signals
  fluorescence/uptake in differentiated vs dedifferentiated chondrocytes (in words): Fluorescence occurred uniformly in both differentiated and dedifferentiated chondrocytes
  subcellular fluorescence distribution (in words): diffuse cytoplasmic fluorescence for all drug concentrations studied. No nuclear or membrane staining was observed
[3]; at a highly toxic dose
  MMP2 production (in words): non-detectable
[3]
  reduction of MMP2 production: approximately 50%
[3]; dependence on cell killing
  MMP2 production (in words): MMP2 production decreased as a function of cell killing
[4]
  toxic response / cellular viability (in words): most toxic responses in chondrocyte cultures
[4]; 1 J/cm^2 light, 72 hours after irradiation
  decrease in cellular viability: 60%
[4]; 5 or 10 J/cm^2 light, 72 hours after irradiation
  decrease in cellular viability: 80%
[5]
  Photons Absorbed at IC50: 5.86 × 10^6 photons/cell
  relative uptake (in words): lowest relative uptake
  IC50 Uptake: 1.02 fg/cell
